Target: T1, Human CB2R (Cannabinoid receptor 2) (Homo sapiens, UniProt P34972)
T1 construct: host or cells: HEK-293
Assay: CB-2 in vitro cAMP (HTRF) functional assay
Format: cell-based
Details: mean where tested more than once
Description: CB1 and CB2 receptors are Gi-coupled GPCR. Activation of CB1 and CB2 receptors results in a decrease in cAMP production. An inverse agonist of the CB1 or CB2 receptor results in the opposite effect, an increase of cAMP production. The principle of this assay is based on HTRF® technology (Homogeneous Time-Resolved Fluorescence). The method is a competitive immunoassay between native cAMP produced by cells and the cAMP labeled with the fluorophore d2. The tracer binding is quantified by a Mab anti-cAMP labeled with Eu3+ TBP-NHS Cryptate (supplied as part of the assay kit). The specific signal (i.e. energy transfer) is inversely proportional to the concentration of cAMP in the standard or sample.
Human CB1R (Cannabinoid receptor 1) was stably transfected in HEK-293 cells (DiscoveRx, cat: 93-0200C1). Human CB2R (Cannabinoid receptor 2) was stably transfected in HEK-293 cells (DiscoveRx, cat: 93-0201C1). Cell cultures were maintained in media: DMEM (Invitrogen Cat#12430-054) supplemented with 10% HI FBS (Invitrogen Cat#16140-071), 1% L-glutamine (Invitrogen Cat#25030-081), 0.2 mg/ml Hygromycin B (Invitrogen Cat#10687-010), 600 μg/mL G418 (Invitrogen Cat#10131-035), and 1× Penn/Strep (Invitrogen 15140-122). After cell expansion, aliquots were cryo-stored in media containing 5% DMSO (Pierce Cat#20684).
One day prior to experiments media was warmed to 37° C. and the cryo-stored cells were thawed in a 37° C. water bath. The cells were then added to media (10× volume) and the mixture was centrifuged at 1000 RPM for 5 min. The supernate was removed and the cells were re-suspended in media. A sample of the cell suspension was evaluated on a Cedex XS automated cell counter (Innovatis Systems) to determine viable cells/ml. Additional media was added to the cells to achieve a final cell density of 4E5 cells/mL. The cells were then plated into 384 well PDL white solid bottom plates (Greiner, Cat#781945) at 20 μL per well using a Multidrop (Thermo Scientific). Cells were removed from Row P (location of cAMP standards). Two columns of cells were plated into a clear bottom 384 well PDL coated plate (Greiner, Cat#781944) to view confluence the day of the assay. The cell plates were lidded and stored for 15 minutes in a hood, then transferred to an incubator (37° C., 5% CO2, 95% humidity) overnight.
DMSO was added to all wells of 384 well V bottom polystyrene plate (Greiner, Cat#781280) except to columns 1 and 13, rows O and P and wells M13-M23 and N13-N23. Test compounds (60 μL, 10 mM) were added to Column 1 and 13 (A1 through N1 and A13 through L13). Test compounds were serially diluted 1/3 by transferring and mixing 20 μl sample with 40 μL DMSO.
DMSO (40 μL) was added to wells of 384 well V bottom polystyrene plate: O2 through O11, M14 through M23, N14 through N23, and O14 through O23. AM630 (also known as [6-iodo-2-methyl-1-[2-(4-morpholinyl)ethyl]-1H-indol-3-yl](4-methoxyphenyl)-methanone, Cayman Chemical, Cat#10006974) (60 μL, 10 mM) was added to O1; and 1-(2,4-dichlorophenyl)-7-[(4-fluorophenyl)methylene]-4,5,6,7-tetrahydro-N-1-piperidinyl-1H-indazole-3-carboxamide (60 μL, 10 mM) was added to N13. The control was serially diluted 1/3 by transferring and mixing 20 μl sample with 40 μL DMSO. This process resulted 11 doses per control, 10 mM to […].
Cells plated the day prior to the assay in clear bottom plates were viewed on an inverse microscope to ensure confluency in the range of 60-75%. […]

T1 sequence (P34972 whole entry): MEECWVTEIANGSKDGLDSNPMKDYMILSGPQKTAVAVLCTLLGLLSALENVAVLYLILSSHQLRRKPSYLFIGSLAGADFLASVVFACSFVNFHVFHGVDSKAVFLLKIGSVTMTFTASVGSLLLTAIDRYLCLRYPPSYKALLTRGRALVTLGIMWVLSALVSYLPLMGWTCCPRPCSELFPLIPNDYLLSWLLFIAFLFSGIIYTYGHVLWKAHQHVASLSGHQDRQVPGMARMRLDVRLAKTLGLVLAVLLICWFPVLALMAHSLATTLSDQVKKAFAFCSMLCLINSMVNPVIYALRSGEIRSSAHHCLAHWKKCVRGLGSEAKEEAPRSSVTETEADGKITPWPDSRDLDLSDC

SMILES	EC50 [µM]
O=c1cc(NCc2ccc(C(F)(F)F)cc2)c2cc(C(c3ccc(Cl)cc3)c3ccc(Cl)cc3)ccc2[nH]1 [Compound 58, 6-[Bis(4-chlorophenyl)methyl]-4-{[4-(trifluoromethyl)benzyl]amino}quinolin-2(1H)-one]	> 10
O=c1cc(Nc2cccc(C(F)(F)F)c2)c2cc(C(c3ccc(Cl)cc3)c3ccc(Cl)cc3)ccc2[nH]1 [Compound 75, 6-[Bis(4-chlorophenyl)methyl]-4-{[3-(trifluoromethyl)phenyl]amino}quinolin-2(1H)-one]	> 10
O=c1cc(NCc2ccc(C(F)(F)F)cn2)c2cc(C(c3ccc(Cl)cc3)c3ccc(Cl)cc3)ccc2[nH]1 [Compound 78, 6-[Bis(4-chlorophenyl)methyl]-4-({[5-(trifluoromethyl)pyridin-2-yl]methyl}amino)quinolin-2(1H)-one]	> 10
O=c1cc(Nc2ccc(Cl)c(F)c2)c2cc(C(c3ccc(Cl)cc3)c3ccc(Cl)cc3)ccc2[nH]1 [Compound 83, 6-[Bis(4-chlorophenyl)methyl]-4-[(4-chloro-3-fluorophenyl)amino]quinolin-2(1H)-one]	> 10
COC(=O)c1ccc(Nc2cc(=O)[nH]c3ccc(C(c4ccc(Cl)cc4)c4ccc(Cl)cc4)cc23)cc1 [Compound 85, Methyl 4-({6-[bis(4-chlorophenyl)methyl]-2-oxo-1,2-dihydroquinolin-4-yl}amino)benzoate]	> 10
NC(=O)c1ccc(Nc2cc(=O)[nH]c3ccc(C(c4ccc(Cl)cc4)c4ccc(Cl)cc4)cc23)cc1 [Compound 87, 4-({6-[Bis(4-chlorophenyl)methyl]-2-oxo-1,2-dihydroquinolin-4-yl}amino)benzamide]	> 10
COCCOc1ccc(Nc2cc(=O)[nH]c3ccc(C(c4ccc(Cl)cc4)c4ccc(Cl)cc4)cc23)cc1 [Compound 94, 6-[Bis(4-chlorophenyl)methyl]-4-{[4-(2-methoxyethoxy)phenyl]amino}quinolin-2(1H)-one]	> 10
O=C(O)CC(=O)N1CCC(Nc2cc(=O)[nH]c3ccc(C(c4ccc(Cl)cc4)c4ccc(Cl)cc4)cc23)CC1 [Compound 96, 3-[4-({6-[Bis(4-chlorophenyl)methyl]-2-oxo-1,2-dihydroquinolin-4-yl}amino)piperidin-1-yl]-3-oxopropanoic acid]	> 10
O=C(O)CCC(=O)N1CCC(Nc2cc(=O)[nH]c3ccc(C(c4ccc(Cl)cc4)c4ccc(Cl)cc4)cc23)CC1 [Compound 98, 4-(4-((6-(bis(4-chlorophenyl)methyl)-2-oxo-1,2-dihydroquinolin-4-yl)amino)piperidin-1-yl)-4-oxobutanoic acid]	> 10
CCOC(=O)CS(=O)(=O)N1CCC(Nc2cc(=O)[nH]c3ccc(C(c4ccc(Cl)cc4)c4ccc(Cl)cc4)cc23)CC1 [Compound 102, ethyl 2-((4-((6-(bis(4-chlorophenyl)methyl)-2-oxo-1,2-dihydroquinolin-4-yl)amino)piperidin-1-yl)sulfonyl)acetate]	> 10
CCOC(=O)CCCNc1cc(C(c2ccc(Cl)cc2)c2ccc(Cl)cc2)cc2c(NC3CCN(S(=O)(=O)C(F)(F)F)CC3)cc(=O)[nH]c12 [Compound 104, Ethyl 4-({6-[bis(4-chlorophenyl)methyl]-2-oxo-4-({1-[(trifluoromethyl)sulfonyl]piperidin-4-yl}amino)-1,2-dihydroquinolin-8-yl}amino)butanoate]	> 10
CC(C)(C)OC(=O)COc1ccc(Nc2cc(=O)[nH]c3ccc(C(c4ccc(Cl)cc4)c4ccc(Cl)cc4)cc23)cc1 [Compound 105, tert-butyl 2-(4-((6-(bis(4-chlorophenyl)methyl)-2-oxo-1,2-dihydroquinolin-4-yl)amino)phenoxy)acetate]	> 10
O=C(O)COc1ccc(Nc2cc(=O)[nH]c3ccc(C(c4ccc(Cl)cc4)c4ccc(Cl)cc4)cc23)cc1 [Compound 109, 2-(4-((6-(bis(4-chlorophenyl)methyl)-2-oxo-1,2-dihydroquinolin-4-yl)amino)phenoxy)acetic acid]	> 10
COCCn1c(=O)cc(NC2CCN(S(=O)(=O)C(F)(F)F)CC2)c2cc(C(c3ccc(Cl)cc3)c3ccc(Cl)cc3)ccc21 [Compound 110, 6-(bis(4-chlorophenyl)methyl)-1-(2-methoxyethyl)-4-((1-((trifluoromethyl)sulfonyl)piperidin-4-yl)amino)quinolin-2(1H)-one]	> 10
NC(=O)COc1ccc(Nc2cc(=O)[nH]c3ccc(C(c4ccc(Cl)cc4)c4ccc(Cl)cc4)cc23)cc1 [Compound 111, 2-(4-((6-(bis(4-chlorophenyl)methyl)-2-oxo-1,2-dihydroquinolin-4-yl)amino)phenoxy)acetamide]	> 10
CC(C)(C)OC(=O)/N=C(/NC(=O)OC(C)(C)C)N1CCC(Nc2cc(=O)[nH]c3ccc(C(c4ccc(Cl)cc4)c4ccc(Cl)cc4)cc23)CC1 [Compound 119, (Z)-tert-butyl ((4-((6-(bis(4-chlorophenyl)methyl)-2-oxo-1,2-dihydroquinolin-4-yl)amino)piperidin-1-yl)((tert-butoxycarbonyl)imino)methyl)carbamate]	> 10

The remaining lines, values ahead:

EC50 [µM]	SMILES
> 10	NC(=O)CCC(=O)N1CCC(Nc2cc(=O)[nH]c3ccc(C(c4ccc(Cl)cc4)c4ccc(Cl)cc4)cc23)CC1 [Compound 112, 4-[4-({6-[Bis(4-chlorophenyl)methyl]-2-oxo-1,2-dihydroquinolin-4-yl}amino)piperidin-1-yl]-4-oxobutanamide]
> 10	CC(C)(C)OC(=O)CCN1CCC(Nc2cc(=O)[nH]c3ccc(C(c4ccc(Cl)cc4)c4ccc(Cl)cc4)cc23)CC1 [Compound 114, tert-butyl 3-(4-((6-(bis(4-chlorophenyl)methyl)-2-oxo-1,2-dihydroquinolin-4-yl)amino)piperidin-1-yl)propanoate]
> 10	O=C(O)CN1CCC(Nc2cc(=O)[nH]c3ccc(C(c4ccc(Cl)cc4)c4ccc(Cl)cc4)cc23)CC1 [Compound 117, [4-({6-[Bis(4-chlorophenyl)methyl]-2-oxo-1,2-dihydroquinolin-4-yl}amino)piperidin-1-yl]acetic acid]
> 10	O=C(O)CCCOc1ccc(Nc2cc(=O)[nH]c3ccc(C(c4ccc(Cl)cc4)c4ccc(Cl)cc4)cc23)cc1 [Compound 121, 4-[4-({6-[Bis(4-chlorophenyl)methyl]-2-oxo-1,2-dihydroquinolin-4-yl}amino)phenoxy]butanoic acid]
> 10	NC(=O)CCCOc1ccc(Nc2cc(=O)[nH]c3ccc(C(c4ccc(Cl)cc4)c4ccc(Cl)cc4)cc23)cc1 [Compound 123, 4-[4-({6-[Bis(4-chlorophenyl)methyl]-2-oxo-1,2-dihydroquinolin-4-yl}amino)phenoxy]butanamide]
> 10	COC(=O)Cc1ccc(Nc2cc(=O)[nH]c3ccc(C(c4ccc(Cl)cc4)c4ccc(Cl)cc4)cc23)cc1 [Compound 124, Methyl [4-({6-[bis(4-chlorophenyl)methyl]-2-oxo-1,2-dihydroquinolin-4-yl}amino)phenyl]acetate]
> 10	O=C(O)Cc1ccc(Nc2cc(=O)[nH]c3ccc(C(c4ccc(Cl)cc4)c4ccc(Cl)cc4)cc23)cc1 [Compound 125, [4-({6-[Bis(4-chlorophenyl)methyl]-2-oxo-1,2-dihydroquinolin-4-yl}amino)phenyl]acetic acid]
> 10	NCCCCNc1cc(C(c2ccc(Cl)cc2)c2ccc(Cl)cc2)cc2c(NC3CCN(S(=O)(=O)C(F)(F)F)CC3)cc(=O)[nH]c12 [Compound 141, 8-((4-aminobutyl)amino)-6-(bis(4-chlorophenyl)methyl)-4-((1-((trifluoromethyl)sulfonyl)piperidin-4-yl)amino)quinolin-2(1H)-one]

Reference: US9464055B2, “Quinoline derivatives useful as CB-1 inverse agonists” (JANSSEN PHARMACEUTICA NV, priority 2014, dated 2016)
